Patent publication US8586550B2, “Thiazole derivatives as SGLT2 inhibitors and pharmaceutical composition comprising same” (Green Cross Corporation, priority 2010, dated 2013)

The molecules below were run against T1, Human SGLT2 (hSGLT2) (Homo sapiens, UniProt P31639) (assay: Sodium-dependent glucose transport (14C-AMG uptake) assay in CHO cells stably expressing hSGLT2). Conditions: CHO cells expressing hSGLT2, 14C-AMG uptake, 37° C. for 2 h; single determinations; read-out: hSGLT2 Inhibitory Activity IC50.
T1 construct: expressed in transfected cells
T1 sequence (P31639 1-672): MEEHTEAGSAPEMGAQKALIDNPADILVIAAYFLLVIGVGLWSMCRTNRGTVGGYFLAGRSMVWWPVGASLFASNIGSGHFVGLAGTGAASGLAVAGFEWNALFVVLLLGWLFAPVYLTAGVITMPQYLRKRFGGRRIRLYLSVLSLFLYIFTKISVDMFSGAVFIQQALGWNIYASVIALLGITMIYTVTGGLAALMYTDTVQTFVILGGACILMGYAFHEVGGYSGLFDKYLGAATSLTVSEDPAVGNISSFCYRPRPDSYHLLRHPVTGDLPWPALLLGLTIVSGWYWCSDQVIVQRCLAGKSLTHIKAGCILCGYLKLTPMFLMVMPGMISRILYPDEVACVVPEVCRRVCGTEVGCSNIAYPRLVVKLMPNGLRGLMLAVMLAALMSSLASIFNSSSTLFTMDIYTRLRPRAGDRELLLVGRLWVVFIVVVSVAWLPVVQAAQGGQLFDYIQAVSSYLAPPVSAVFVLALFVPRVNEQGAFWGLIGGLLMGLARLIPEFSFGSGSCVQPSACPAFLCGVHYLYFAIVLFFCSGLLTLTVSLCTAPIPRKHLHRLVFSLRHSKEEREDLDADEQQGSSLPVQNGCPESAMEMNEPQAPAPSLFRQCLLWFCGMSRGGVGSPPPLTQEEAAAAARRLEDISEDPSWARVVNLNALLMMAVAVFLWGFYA
Assay type: cell-based
How it was run: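 CHO cells stably expressing human SGLT2, preincubated 10 min at 37 °C in sodium-free choline buffer, then 2 h at 37 °C in Na+ buffer with 1 mM AMG plus 8 μM 14C-AMG and inhibitor. Washed cells counted by scintillation; IC50 by nonlinear regression.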

IC50 | Molecule
13.3 nM | OC[C@H]1O[C@@H](c2ccc(Cl)c(Cc3ncc(-c4ccc(Cl)s4)s3)c2)[C@H](O)[C@@H](O)[C@@H]1O [Example 8, (2S,3R,4R,5S,6R)-2-(4-Chloro-3-((5-(5-chlorothiophen-2-yl)thiazol-2-yl)methyl)phenyl)-6-(hydroxymethyl)tetrahydro-2H-pyran-3,4,5-triol]
58.7 nM | CCCCSc1cnc(Cc2cc([C@@H]3O[C@H](CO)[C@@H](O)[C@H](O)[C@H]3O)ccc2Cl)s1 [Example 26, (2S,3R,4R,5S,6R)-2-(3-((5-(Butylthio)thiazol-2-yl)methyl)-4-chlorophenyl)-6-(hydroxymethyl)-tetrahydro-2H-pyran-3,4,5-triol]
3.88 nM | OC[C@H]1O[C@@H](c2cc(Cc3ncc(-c4cccs4)s3)c(Cl)cc2F)[C@H](O)[C@@H](O)[C@@H]1O [Example 55, (2S,3R,4R,5S,6R)-2-(4-Chloro-2-fluoro-5-((5-(thiophen-2-yl)thiazol-2-yl)methyl)phenyl)-6-(hydroxymethyl)tetrahydro-2H-pyran-3,4,5-triol]
8.21 nM | CCCCCOc1cnc(Cc2cc([C@@H]3O[C@H](CO)[C@@H](O)[C@H](O)[C@H]3O)ccc2Cl)s1 [Example 23, (2S,3R,4R,5S,6R)-2-(4-Chloro-3-((5-(pentyloxy)thiazol-2-yl)methyl)phenyl)-6-(hydroxymethyl)-tetrahydro-2H-pyran-3,4,5-triol]
0.901 nM | OC[C@H]1O[C@@H](c2ccc(Cl)c(Cc3cnc(-c4ccsc4)s3)c2)[C@H](O)[C@@H](O)[C@@H]1O [Example 190, (2S,3R,4R,5S,6R)-2-(4-Chloro-3-((2-(thiophen-3-yl)thiazol-5-yl)methyl)phenyl)-6-(hydroxymethyl)tetrahydro-2H-pyran-3,4,5-triol]
3.49 nM | OC[C@H]1O[C@@H](c2cc(Cc3ncc(-c4ccco4)s3)c(Cl)cc2F)[C@H](O)[C@@H](O)[C@@H]1O [Example 53, (2S,3R,4R,5S,6R)-2-(4-Chloro-2-fluoro-5-((5-(furan-2-yl)thiazol-2-yl)methyl)phenyl)-6-(hydroxymethyl)tetrahydro-2H-pyran-3,4,5-triol]
1.39 nM | OC[C@H]1O[C@@H](c2cc(Cc3cnc(-c4ccsc4)s3)c(Cl)cc2F)[C@H](O)[C@@H](O)[C@@H]1O [Example 203, (2S,3R,4R,5S,6R)-2-(4-Chloro-2-fluoro-5-((2-(thiophen-3-yl)thiazol-5-yl)methyl)phenyl)-6-(hydroxymethyl)tetrahydro-2H-pyran-3,4,5-triol]
76.6 nM | OC[C@H]1O[C@@H](c2ccc(Cl)c(Cc3cnc(-c4cc5ccccc5o4)s3)c2)[C@H](O)[C@@H](O)[C@@H]1O [Example 185, (2S,3R,4R,5S,6R)-2-(3-((2-(Benzofuran-2-yl)thiazol-5-yl)methyl)-4-chlorophenyl)-6-(hydroxymethyl)tetrahydro-2H-pyran-3,4,5-triol]
26.8 nM | COc1c(Cc2ncc(C3CCCC3)s2)cc([C@@H]2O[C@H](CO)[C@@H](O)[C@H](O)[C@H]2O)c2ccccc12 [Example 101, (2S,3R,4R,5S,6R)-2-(3-((5-Cyclopentylthiazol-2-yl)methyl)-4-methoxynaphthalen-1-yl)-6-(hydroxymethyl)-tetrahydro-2H-pyran-3,4,5-triol]
51.4 nM | CC(C)c1cnc(Cc2cc([C@@H]3O[C@H](CO)[C@@H](O)[C@H](O)[C@H]3O)ccc2Cl)s1 [Example 16, (2S,3R,4R,5S,6R)-2-(4-Chloro-3-((5-isopropylthiazol-2-yl)methyl)phenyl)-6-(hydroxymethyl)-tetrahydro-2H-pyran-3,4,5-triol]
29.9 nM | COc1c(Cc2ncc(C)s2)cc([C@@H]2O[C@H](CO)[C@@H](O)[C@H](O)[C@H]2O)c2ccccc12 [Example 98, (2R,3S,4R,5R,6S)-2-(Hydroxymethyl)-6-(4-methoxy-3-((5-methylthiazol-2-yl)methyl)naphthalen-1-yl)-tetrahydro-2H-pyran-3,4,5-triol]
4.77 nM | OC[C@H]1O[C@@H](c2cc(Cc3ncc(-c4cccs4)s3)c(Cl)cc2Cl)[C@H](O)[C@@H](O)[C@@H]1O [Example 61, (2S,3R,4R,5S,6R)-2-(2,4-Dichloro-5-((5-(thiophen-2-yl)thiazol-2-yl)methyl)phenyl)-6-(hydroxymethyl)tetrahydro-2H-pyran-3,4,5-triol]
2.79 nM | OC[C@H]1O[C@@H](c2ccc(Cl)c(Cc3cnc(-c4cccs4)s3)c2)[C@H](O)[C@@H](O)[C@@H]1O [Example 187, (2S,3R,4R,5S,6R)-2-(4-Chloro-3-((2-(thiophen-2-yl)thiazol-5-yl)methyl)phenyl)-6-(hydroxymethyl)tetrahydro-2H-pyran-3,4,5-triol]
12.4 nM | CCCOc1cnc(Cc2cc([C@@H]3O[C@H](CO)[C@@H](O)[C@H](O)[C@H]3O)ccc2Cl)s1 [Example 22, (2S,3R,4R,5S,6R)-2-(4-Chloro-3-((5-propoxythiazol-2-yl)methyl)phenyl)-6-(hydroxymethyl)-tetrahydro-2H-pyran-3,4,5-triol]
5.98 nM | OC[C@H]1O[C@@H](c2cc(Cc3ncc(-c4cccs4)s3)cc3ccccc23)[C@H](O)[C@@H](O)[C@@H]1O [Example 94, (2R,3S,4R,5R,6S)-2-(Hydroxymethyl)-6-(3-((5-(thiophen-2-yl)thiazol-2-yl)methyl)naphthalen-1-yl)tetrahydro-2H-pyran-3,4,5-triol]
1.43 nM | Cc1ccc([C@@H]2O[C@H](CO)[C@@H](O)[C@H](O)[C@H]2O)cc1Cc1ncc(-c2ccco2)s1 [Example 30, (2S,3R,4R,5S,6R)-2-(3-((5-(Furan-2-yl)thiazol-2-yl)methyl)-4-methylphenyl)-6-(hydroxymethyl)tetrahydro-2H-pyran-3,4,5-triol]
1.28 nM | Cc1ccc([C@@H]2O[C@H](CO)[C@@H](O)[C@H](O)[C@H]2O)cc1Cc1ncc(-c2ccsc2)s1 [Example 33, (2R,3S,4R,5R,6S)-2-(Hydroxymethyl)-6-(4-methyl-3-((5-(thiophen-3-yl)thiazol-2-yl)methyl)phenyl)tetrahydro-2H-pyran-3,4,5-triol]
8.75 nM | OC[C@H]1O[C@@H](n2cc(Cc3ncc(-c4ccco4)s3)c3ccccc32)[C@H](O)[C@@H](O)[C@@H]1O [Example 130, (2R,3R,4S,5S,6R)-2-(3-((5-(Furan-2-yl)thiazol-2-yl)methyl)-1H-indol-1-yl)-6-(hydroxymethyl)-tetrahydro-2H-pyran-3,4,5-triol]
160 nM | OC[C@H]1O[C@]2(OCc3cc(Cl)c(C4(c5ncc(-c6cccs6)s5)CC4)cc32)[C@H](O)[C@@H](O)[C@@H]1O [Example 129, (1S,3′R,4′S,5′S,6′R)-5-Chloro-6′-(hydroxymethyl)-6-(1-(5-(thiophen-2-yl)thiazole-2-yl)cyclopropyl)-3′,4′,5′,6′-tetrahydro-3H-spiro[isobenzofuran-1,2′-pyran]-3′,4′,5′-triol]
16.9 nM | OC[C@H]1O[C@@H](c2ccc(C(F)(F)F)c(Cc3ncc(-c4cccs4)s3)c2)[C@H](O)[C@@H](O)[C@@H]1O [Example 49, (2R,3S,4R,5R,6S)-2-(Hydroxymethyl)-6-(3-((5-(thiophen-2-yl)thiazol-2-yl)methyl)-4-(trifluoromethyl)phenyl)tetrahydro-2H-pyran-3,4,5-triol]
4.35 nM | CCOc1cc(Cl)c(Cc2ncc(-c3ccoc3)s2)cc1[C@@H]1O[C@H](CO)[C@@H](O)[C@H](O)[C@H]1O [Example 78, (2S,3R,4R,5S,6R)-2-(4-Chloro-2-ethoxy-5-((5-(furan-3-yl)thiazol-2-yl)methyl)phenyl)-6-(hydroxymethyl)-tetrahydro-2H-pyran-3,4,5-triol]
1.89 nM | OC[C@H]1O[C@@H](c2ccc(Br)c(Cc3ncc(-c4ccco4)s3)c2)[C@H](O)[C@@H](O)[C@@H]1O [Example 46, (2S,3R,4R,5S,6R)-2-(4-Bromo-3-((5-(furan-2-yl)thiazol-2-yl)methyl)phenyl)-6-(hydroxymethyl)-tetrahydro-2H-pyran-3,4,5-triol]
14 nM | OC[C@H]1O[C@@H](c2ccc(Cl)c(Cc3ncc(-c4nncs4)s3)c2)[C@H](O)[C@@H](O)[C@@H]1O [Example 107, (2S,3R,4R,5S,6R)-2-(3-((5-(1,3,4-Thiadiazol-2-yl)thiazol-2-yl)methyl)-4-chlorophenyl)-6-(hydroxymethyl)-tetrahydro-2H-pyran-3,4,5-triol]
7.36 nM | (2S,3R,4R,5S,6R)-2-(4-Fluoro-3-((5-(thiazol-3-yl)thiazol-2-yl)methyl)phenyl)-6-(hydroxymethyl)tetrahydro-2H-pyran-3,4,5-triol [Example 43]
79.9 nM | CC(C)(C)OC(=O)OC[C@H]1O[C@@H](c2ccc(Cl)c(Cc3ncc(-c4ccco4)s3)c2)[C@H](O)[C@@H](O)[C@@H]1O [Example 162, tert-Butyl ((2R,3S,4R,5R,6S)-6-(4-chloro-3-((5-(furan-2-yl)thiazol-2-yl)methyl)phenyl)-3,4,5-trihydroxytetrahydro-2H-pyran-2-yl)methyl carbonate]
